# Reference: patent publication EP0489933A1, “BILE ALCOHOL AND DRUG CONTAINING THE SAME AS ACTIVE INGREDIENT” (TSUMURA CO., LTD., priority 1990, dated 1992)
# How the values were obtained:
# [1] = Blood plasma clotting time after oral administration; format: in vivo, male rats of Wistar line; conditions: 30 mg/kg, p.o.; blood collected 90 minutes after administration; calcium chloride, 37°C
# Experimental: In this experiment, 9-week-old male rats of Wistar line (5 to 6 individuals per one group) were used after rearing them for 1 week with normal feed. After 24 hours of fasting, each test drug was administered orally and, 90 minutes thereafter, blood sample was collected from lower abdominal vena cava of each rat under anesthesia with Nembutal® (1 ml/kg, i.p.). Blood samples obtained in this way were checked for their blood clotting time and erythrocyte deformability.
# Measuring procedures are as follows.
# Blood clotting time ... Collected blood sample is centrifuged at 3,500 rpm for 10 minutes to obtain blood plasma. The blood plasma is pre-incubated for 1 minute in a water bath controlled at 37°C, mixed with calcium chloride and then shaken at 20 second intervals to measure a time required for its clotting.
# male mice of ddY line = experiment: Blood oxygen and carbon dioxide partial pressure; format: in vivo; conditions: 20 mg/kg, i.p.; blood from abdominal aorta 60 minutes after administration
# Experimental: In this experiment, 4-week-old male mice of ddY line (10 individuals per one group) were used after fasting treatment for 24 hours.
# After 60 minutes of the administration of each compound of the present invention, each mouse was subjected to ventrotomy under anesthesia with Nembutal® (Dainabot Co., Ltd.; 50 mg/kg, i.p.) to collect blood from abdominal aorta, and the collected blood sample was immediately checked for its oxygen partial pressure (PO₂) and carbon dioxide partial pressure (PCO₂) using a blood-aerotonometer (Model 170, Ciba-Corning).
# male rats of SD line = experiment: High cholesterol feed: blood viscosity, serum total cholesterol, triglyceride, GOT; format: in vivo; conditions: 100 mg/kg/day, p.o., 4 days
# Experimental: In this experiment, 5-week-old male rats of SD line (5 individuals per one group) were used after rearing them for 1 week using normal feed, and each compound of the present invention (100 mg/kg) was administered orally once a day for 4 days. Simultaneously with the commencement of the administration, the normal feed was replaced by a high cholesterol feed. After completion of the administration, they were subjected to fasting treatment for 24 hours. Thereafter, each rat was subjected to ventrotomy under anesthesia with Nembutal® (Dainabot Co., Ltd.; 50 mg/kg, i.p.) to collect blood from abdominal aorta, and the collected blood sample was checked for its blood viscosity using a viscometer (Biolyzer, Tokyo Keiki Co., Ltd.). At the same time, total cholesterol (Wako Pure Chemical Industries, Ltd.; Cholesterol E-test wako), triglyceride (Wako Pure Chemical Industries, Ltd.; Triglyceride G-test wako) and GOT (Wako Pure Chemical Industries, Ltd.; GOT-UV test-wako) in serum samples were measured.
# Qualitative solubility = format: physicochemical
SMILES,Plasma Clotting Time ± S.E. [1],Carbon Dioxide Partial Pressure (male mice of ddY line),Oxygen Partial Pressure (male mice of ddY line),GOT ±S.E. (male rats of SD line),Total Cholesterol ±S.E. (male rats of SD line),Triglyceride ±S.E. (male rats of SD line),solubility in H₂O (Qualitative solubility)
"CC(CCC1OCC1CO)C1CCC2C3C(O)CC4CC(O)CCC4(C)C3CC(O)C12C [Example 3, (24R)-(25S)-(+)-24,26-epoxy-5β-cholestane-3α,7α,12α,27-tetrol]",195 ± 1.9 s,45.5 mmHg,86.1 mmHg,140 ± 10 IU/ℓ,445 ± 65 mg/dL,90 ± 39 mg/dL,–
"C[C@H](CC[C@H]1OC[C@H]1CO)[C@H]1CC[C@H]2[C@@H]3[C@H](O)C[C@@H]4C[C@H](O)CC[C@]4(C)[C@H]3C[C@H](O)[C@]12C [Example 4, (24R)-(25R)-(+)-24,26-epoxy-5β-cholestane-3α,7α,12α,27-tetrol]",–,39.1 mmHg,85.3 mmHg,138 ± 9 IU/ℓ,428 ± 49 mg/dL,92 ± 45 mg/dL,insol in H₂O
"C[C@H](CC[C@@H](O)C1COC1)[C@H]1CC[C@H]2[C@@H]3[C@H](O)C[C@@H]4C[C@H](O)CC[C@]4(C)[C@H]3C[C@H](O)[C@]12C [Example 5, (24R)-(+)-26,27-epoxy-5β-cholestane-3α,7α,12α,24-tetrol]",–,39.9 mmHg,87.1 mmHg,141 ± 13 IU/ℓ,405 ± 99 mg/dL,91 ± 33 mg/dL,insol in H₂O
"C[C@H](CCCC(CO)CO)[C@H]1CC[C@H]2[C@@H]3[C@H](O)C[C@@H]4C[C@H](O)CC[C@]4(C)[C@H]3C[C@H](O)[C@]12C [Example 6, 3α,7α,12α,26,27-pentahydroxy-5β-cholestane]",–,40.3 mmHg,83.5 mmHg,143 ± 8 IU/ℓ,391 ± 70 mg/dL,99 ± 41 mg/dL,–
"C[C@H](CCCC(CO)CO)[C@H]1CC[C@H]2[C@@H]3[C@H](O)C[C@H]4C[C@H](O)CC[C@]4(C)[C@H]3C[C@H](O)[C@]12C [Example 7, 3α,7α,12α,26,27-pentahydroxy-5α-cholestane]",–,41.1 mmHg,81.1 mmHg,138 ± 18 IU/ℓ,385 ± 58 mg/dL,92 ± 31 mg/dL,–
"C[C@H](CC[C@H](O)C(CO)CO)[C@H]1CC[C@H]2[C@@H]3[C@H](O)C[C@@H]4C[C@H](O)CC[C@]4(C)[C@H]3C[C@H](O)[C@]12C [Example 8, (24S)-3α,7α,12α,24,26,27-hexahydroxy-5β-cholestane]",–,42.1 mmHg,98.7 mmHg,140 ± 13 IU/ℓ,410 ± 40 mg/dL,87 ± 15 mg/dL,–
"C[C@H](CC[C@H](O)[C@@H](C)CO)[C@H]1CC[C@H]2[C@@H]3[C@H](O)C[C@@H]4C[C@H](O)CC[C@]4(C)[C@H]3C[C@H](O)[C@]12C [Example 9, (24S)-(25S)-3α,7α,12α,24,26-pentahydroxy-5β-cholestane]",–,43.3 mmHg,88.1 mmHg,138 ± 8 IU/ℓ,441 ± 51 mg/dL,89 ± 41 mg/dL,–
"C[C@H](CC[C@H](O)[C@H](C)CO)[C@H]1CC[C@H]2[C@@H]3[C@H](O)C[C@@H]4C[C@H](O)CC[C@]4(C)[C@H]3C[C@H](O)[C@]12C [Example 10, (24S)-(25R) 3α,7α,12α,24,26-pentahydroxy-5β-cholestane]",–,42.6 mmHg,87.5 mmHg,145 ± 7 IU/ℓ,465 ± 59 mg/dL,99 ± 29 mg/dL,–
"C[C@H](CC[C@@H](O)[C@@H](C)CO)[C@H]1CC[C@H]2[C@@H]3[C@H](O)C[C@@H]4C[C@H](O)CC[C@]4(C)[C@H]3C[C@H](O)[C@]12C [Example 11, (24R)-(25S)-3α,7α,12α,24,26-pentahydroxy-5β-cholestane]",–,40.5 mmHg,86.1 mmHg,151 ± 15 IU/ℓ,433 ± 71 mg/dL,110 ± 33 mg/dL,–
"C[C@H](CO)[C@H](O)CC[C@@H](C)[C@H]1CC[C@H]2[C@@H]3[C@H](O)C[C@@H]4C[C@H](O)CC[C@]4(C)[C@H]3C[C@H](O)[C@]12C [Example 12, (24R)-(25R)-3α,7α,12α,24,26-pentahydroxy-5β-cholestane]",–,41.1 mmHg,87.1 mmHg,141 ± 17 IU/ℓ,475 ± 75 mg/dL,115 ± 39 mg/dL,–
"C[C@H](CC[C@@H](O)C(CO)CO)[C@H]1CC[C@H]2[C@@H]3[C@H](O)C[C@@H]4C[C@H](O)CC[C@]4(C)[C@H]3C[C@H](O)[C@]12C [Illustrative Example 1, (24R)-(+)-3α,7α,12α,24,26,27-hexahydroxy-5β-cholestane]",–,41.3 mmHg,98.6 mmHg,128 ± 10 IU/ℓ,390 ± 61 mg/dL,90 ± 16 mg/dL,–
"C[C@H](CC[C@@H](O)CCO)[C@H]1CC[C@H]2[C@@H]3[C@H](O)C[C@@H]4C[C@H](O)CC[C@]4(C)[C@H]3C[C@H](O)[C@]12C [Illustrative Example 2, 27-nor-(24R)-(+)-3α,7α,12α,24,26-pentahydroxy-5β-cholestane]",201 ± 4.1 s,42.1 mmHg,85.4 mmHg,141 ± 6 IU/ℓ,444 ± 61 mg/dL,101 ± 42 mg/dL,–
"C[C@H](CC[C@H](O)CCO)[C@H]1CC[C@H]2[C@@H]3[C@H](O)C[C@@H]4C[C@H](O)CC[C@]4(C)[C@H]3C[C@H](O)[C@]12C [Illustrative Example 3, 27-nor-(24S)-(+)-3α,7α,12α,24,26-pentahydroxy-5β-cholestane]",213 ± 5.5 s,40.8 mmHg,89.9 mmHg,158 ± 12 IU/ℓ,428 ± 68 mg/dL,105 ± 40 mg/dL,–
"C[C@H](CCCC(C)(O)CO)[C@H]1CC[C@H]2[C@@H]3[C@H](O)C[C@@H]4C[C@H](O)CC[C@]4(C)[C@H]3C[C@H](O)[C@]12C (stereo partly drawn) [Illustrative Example 4, 5β-cholestane-3α,7α,12α,25,26-pentol]",–,40.5 mmHg,91.9 mmHg,116 ± 31 IU/ℓ,450 ± 59 mg/dL,108 ± 38 mg/dL,–
"CC(C)C(O)CC[C@@H](C)[C@H]1CC[C@H]2[C@@H]3[C@H](O)C[C@@H]4C[C@H](O)CC[C@]4(C)[C@H]3C[C@H](O)[C@]12C (stereo partly drawn) [Illustrative Example 5, 3α,7α,12α,24-tetrahydroxy-5β-cholestane]",–,41.2 mmHg,88.1 mmHg,131 ± 21 IU/ℓ,453 ± 49 mg/dL,110 ± 29 mg/dL,–
"C[C@H](CCCO)[C@H]1CC[C@H]2[C@@H]3[C@H](O)C[C@@H]4C[C@H](O)CC[C@]4(C)[C@H]3C[C@H](O)[C@]12C [Illustrative Example 6, 3α,7α,12α,24-tetrahydroxy-5β-cholan]",–,40.1 mmHg,89.6 mmHg,136 ± 10 IU/ℓ,451 ± 50 mg/dL,107 ± 21 mg/dL,–
